US9981909B2 (Janssen Pharmaceutica NV, priority 2008, dated 2018)
Structures can show the parent of a compound that is named as a salt.

Legend:
[1] = biological target: human SERT (Homo sapiens (Human), UniProt P31645); assay: human SERT binding assay with [3H]-citalopram on HEK-293 membranes; conditions: read-out: hSERT binding Ki
Experimental: (§1) Receptor binding was performed using membrane fractions prepared from the HEK-293 cell line recombinantly expressing rat 5-HT7 receptors (NCBI accession NM_022938). Compound affinity for the rat 5-HT7 receptor subtype was evaluated by competitive radioligand binding assays using 5-carboxamido[^3H]tryptamine ([^3H]5-CT) (Amersham Biosciences, cat. 90000403) detection. HitHunter™ cAMP assays are in-vitro based competitive immunoassays. The assay was performed on the HEK-293 cell line stably transfected with r5-HT7 receptor. Cells were pre-incubated with test compounds for 10 minutes. For antagonist testing, the cells were then challenged with 100 nM 5-CT for 20 minutes. Cells were then lysed and cAMP measured according to manufacturers protocol (Amersham, cat. NET791250UC) or [^3H]mesulergine (Amersham, cat. TRK1041). The assay was performed on membranes prepared from HEK-293 cells stably transfected with h5-HT6. Following centrifugation, membranes were resuspended and incubated for 60 min at room temperature with 1.7 nM [^3H]LSD in the presence of increasing concentration of test compounds. Nonspecific binding was defined in the presence of 10 μM clozapine (Tocris, cat. TRK1068). Homogenized HEK-293 membranes expressing the human SERT were incubated in 50 mM Tris-HCl (pH 7.5), 120 mM NaCl, 5 mM KCl with [^3H]-citalopram (3 nM) with or without test compounds. Nonspecific binding was determined in the presence of 10 μM fluoxetine. Radioactivity readouts and Ki values were performed as previously described for r5-HT7. […] Compounds were assayed in their free form or as salts, as indicated in the Examples section above.

[2] = biological target: rat 5-HT7 receptor (Rattus norvegicus (Rat), UniProt P32305); assay: r5-HT7 binding assay, competitive radioligand binding with [3H]5-CT
Chain of rat 5-HT7 receptor (P32305 1-435): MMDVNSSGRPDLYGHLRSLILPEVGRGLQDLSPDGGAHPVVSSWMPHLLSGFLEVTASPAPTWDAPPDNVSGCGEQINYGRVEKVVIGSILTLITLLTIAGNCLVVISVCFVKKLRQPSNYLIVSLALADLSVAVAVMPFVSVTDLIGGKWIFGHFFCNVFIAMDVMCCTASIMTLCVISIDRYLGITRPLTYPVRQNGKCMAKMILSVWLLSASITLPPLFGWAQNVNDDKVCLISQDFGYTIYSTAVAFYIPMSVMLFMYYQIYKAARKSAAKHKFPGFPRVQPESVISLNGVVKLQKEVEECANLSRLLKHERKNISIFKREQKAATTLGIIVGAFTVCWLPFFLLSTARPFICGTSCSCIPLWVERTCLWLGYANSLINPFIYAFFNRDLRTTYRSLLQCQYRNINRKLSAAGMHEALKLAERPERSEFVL
Experimental: as §1

[3] = rat 5-HT7 receptor, HEK-293 membranes

Chain of human SERT (P31645 whole entry): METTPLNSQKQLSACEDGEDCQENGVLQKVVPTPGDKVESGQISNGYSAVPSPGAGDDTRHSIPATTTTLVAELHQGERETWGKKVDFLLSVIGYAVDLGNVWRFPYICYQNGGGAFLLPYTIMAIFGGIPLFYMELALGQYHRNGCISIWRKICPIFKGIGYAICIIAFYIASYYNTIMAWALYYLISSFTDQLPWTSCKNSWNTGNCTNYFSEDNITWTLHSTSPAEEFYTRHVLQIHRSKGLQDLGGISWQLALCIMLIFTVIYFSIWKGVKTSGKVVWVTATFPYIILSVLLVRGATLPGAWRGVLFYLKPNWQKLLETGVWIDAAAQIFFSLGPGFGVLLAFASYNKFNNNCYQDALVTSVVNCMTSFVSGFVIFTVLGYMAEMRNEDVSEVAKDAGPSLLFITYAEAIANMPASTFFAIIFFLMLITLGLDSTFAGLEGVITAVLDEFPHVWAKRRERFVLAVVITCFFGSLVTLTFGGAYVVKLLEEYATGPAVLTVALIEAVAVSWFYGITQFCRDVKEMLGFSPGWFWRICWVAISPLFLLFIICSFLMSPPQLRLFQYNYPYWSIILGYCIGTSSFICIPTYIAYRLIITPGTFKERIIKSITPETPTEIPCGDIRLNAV

Row | Compound | Ki [1] [nM] | Ki [2, 3] [nM] | Ki ([2]; rat 5-HT7, HEK-293 membranes) [nM]
1 | CC(Oc1ccc(Cl)cc1OC1CNC1)c1ccc(Cl)cc1 (racemic) [Example 123, (±)-3-[5-Chloro-2-[1-(4-chloro-phenyl)-ethoxy]-phenoxy]-azetidine] | 25 | 42 | 
2 | CC(Oc1ccc(Cl)cc1OC1CN(Cc2ccccc2)C1)c1cccc(C(F)(F)F)c1 (racemic) [Example 108, (±)-1-Benzyl-3-[5-chloro-2-[1-(3-trifluoromethyl-phenyl)-ethoxy]-phenoxy]-azetidine] | 5000 | 36 | 
3 | CS(=O)(=O)c1cccc(COc2ccc(Cl)cc2OC2CNC2)c1 [Example 27, 3-[5-Chloro-2-(3-methanesulfonyl-benzyloxy)-phenoxy]-azetidine] | 1680 | 229 | 
4 | CSc1cccc(COc2ccc(Cl)cc2OC2CNC2)c1 [Example 26, 3-[5-Chloro-2-(3-methylsulfanyl-benzyloxy)-phenoxy]-azetidine] | 13 | 25 | 
5 | FCC(Oc1ccc(Br)cc1OC1CNC1)c1ccccc1 (stereo not shown) [Example 142, 3-[5-Bromo-2-(2-fluoro-1-phenyl-ethoxy)-phenoxy]-azetidine] | 613 | 91 | 
6 | FC(F)(F)Sc1ccc(COc2ccc(Cl)cc2OC2CNC2)cc1 [Example 46, 3-[5-Chloro-2-(4-trifluoromethylsulfanyl-benzyloxy)-phenoxy]-azetidine] |  | 102 | 
7 | FC(F)(F)c1ccc(COc2ccc(Cl)cc2OC2CCCNC2)o1 (racemic) [Example 69, (±)-3-[5-Chloro-2-(5-trifluoromethyl-furan-2-ylmethoxy)-phenoxy]-piperidine] |  | 94 | 
8 | CCC(Oc1ccc(Cl)cc1OC1CNC1)c1ccccc1 (stereo not shown) [Example 147, 3-[5-Chloro-2-(1-phenyl-propoxy)-phenoxy]-azetidine] |  | 211 | 
9 | CCOC(=O)c1ccc(COc2ccc(Cl)cc2OC2CNC2)o1 [Example 55, 5-[2-(Azetidin-3-yloxy)-4-chloro-phenoxymethyl]-furan-2-carboxylic acid ethyl ester] |  | 171 | 
10 | Clc1cccc(COc2ccc(Cl)cc2O[C@@H]2CCNC2)c1 [Example 58, (R)-3-[5-Chloro-2-(3-chloro-benzyloxy)-phenoxy]-pyrrolidine] |  | 120 | 
11 | Cc1cc(COc2ccc(Cl)cc2OC2CNC2)no1 [Example 30, 3-[2-(Azetidin-3-yloxy)-4-chloro-phenoxymethyl]-5-methyl-isoxazole] |  | 105 | 
12 | CC(Oc1ccc(Cl)cc1OC1CNC1)c1ccc(C(F)(F)F)c(F)c1 (racemic) [Example 118, (±)-3-[5-Chloro-2-[1-(3-fluoro-4-trifluoromethyl-phenyl)-ethoxy]-phenoxy]-azetidine] |  | 90 | 
13 | CC(C)c1noc(COc2ccc(Cl)cc2OC2CNC2)n1 [Example 242, 5-[2-(Azetidin-3-yloxy)-4-chloro-phenoxymethyl]-3-isopropyl-[1,2,4]oxadiazole hydrochloride] |  |  | 273
14 | CN1CCC(Oc2cc(Br)ccc2OCc2ccccc2)C1 (racemic) [Example 98, (±)-3-(2-Benzyloxy-5-bromo-phenoxy)-1-methyl-pyrrolidine] |  | 23 | 
15 | FCC(Oc1ccc(Cl)cc1OC1CNC1)c1ccccc1 (stereo not shown) [Example 143, 3-[5-Chloro-2-(2-fluoro-1-phenyl-ethoxy)-phenoxy]-azetidine] |  | 215 | 
16 | CN1CC(Oc2cc(Br)ccc2OCc2ccccc2Cl)C1 [Example 16, 3-[5-Bromo-2-(2-chloro-benzyloxy)-phenoxy]-1-methyl-azetidine] |  | 100 | 
17 | CC(C)N1CC(Oc2cc(Br)ccc2OCc2cccc(F)c2)C1 [Example 20, 3-[5-Bromo-2-(3-fluoro-benzyloxy)-phenoxy]-1-isopropyl-azetidine] |  | 8 | 
18 | CC(Oc1ccc(Cl)cc1OC1CN(C(C)C)C1)c1cccc(C(F)(F)F)c1 (racemic) [Example 106, (±)-3-[5-Chloro-2-[1-(3-trifluoromethyl-phenyl)-ethoxy]-phenoxy]-1-isopropyl-azetidine] |  | 75 | 
19 | FCC(Oc1ccc(Cl)cc1OC1CCNCC1)c1ccccc1 (racemic) [Example 144, (±)-4-[5-Chloro-2-(2-fluoro-1-phenyl-ethoxy)-phenoxy]-piperidine] |  | 304 | 
20 | Cc1ccccc1Oc1ccc(Cl)cc1OC1CNC1 [Example 259, 3-(5-Chloro-2-o-tolyloxy-phenoxy)-azetidine trifluoroacetate] |  |  | 460
21 | OCC(Oc1ccc(Cl)cc1OC1CNC1)c1ccccc1 (stereo not shown) [Example 148, 2-[2-(Azetidin-3-yloxy)-4-chloro-phenoxy]-2-phenyl-ethanol] |  | 2000 | 
22 | Cc1cc(COc2ccc(Cl)cc2OC2CNC2)c(C(F)(F)F)o1 [Example 78, 3-[5-Chloro-2-(5-methyl-2-trifluoromethyl-furan-3-ylmethoxy)-phenoxy]-azetidine] |  | 710 | 

Next, values leading:

Row | Ki [1] [nM] | Ki [2, 3] [nM] | Ki ([2]; rat 5-HT7, HEK-293 membranes) [nM] | Compound
23 |  | 766 |  | Clc1ccc(OCC2CCOC2)c(OC2CNC2)c1 (stereo not shown) [Example 163, 3-[5-Chloro-2-(tetrahydro-furan-3-ylmethoxy)-phenoxy]-azetidine]
24 |  |  | 72 | O=C(c1ccc2ccccc2c1)c1ccc(Cl)cc1OC1CNC1 [Example 294, [2-(Azetidin-3-yloxy)-4-chloro-phenyl]-naphthalen-2-yl-methanone]
25 |  | 5000 |  | Fc1cccc(COc2ccc(Br)cc2OC2CN(c3ccccc3)C2)c1 [Example 172, 3-[5-Bromo-2-(3-fluoro-benzyloxy)-phenoxy]-1-phenyl-azetidine]
26 |  |  | 160 | Clc1ccc(Oc2ccccc2)c(OC2CNC2)c1 [Example 256, 3-(5-Chloro-2-phenoxy-phenoxy)-azetidine]
27 |  |  | 34 | COc1ccc(C(=O)c2ccc(Br)cc2OC2CNC2)cc1 [Example 291, [2-(Azetidin-3-yloxy)-4-bromo-phenyl]-(4-methoxy-phenyl)-methanone]
28 |  |  | 1600 | Clc1ccc(Oc2nc3ccccc3s2)c(OC2CNC2)c1 [Example 261, 2-[2-(Azetidin-3-yloxy)-4-chloro-phenoxy]-benzothiazole]
29 |  |  | 69 | CC1(Oc2cc(Br)ccc2Oc2ccccc2)CNC1 [Example 218, 3-(5-Bromo-2-phenoxy-phenoxy)-3-methyl-azetidine]
30 |  | 66 |  | Fc1ccc(OCc2cccc(Cl)c2)c(OC2CNC2)c1 [Example 202, 3-[2-(3-Chloro-benzyloxy)-5-fluoro-phenoxy]-azetidine hydrochloride]
31 |  | 5000 |  | Cc1cc(COc2ccc(Cl)cc2OC2CNC2)n(C)n1 [Example 170, 5-[2-(Azetidin-3-yloxy)-4-chloro-phenoxymethyl]-1,3-dimethyl-1H-pyrazole]
32 |  |  | 544 | Clc1ccc(Oc2ccc3cccnc3n2)c(OC2CNC2)c1 [Example 263, 2-[2-(Azetidin-3-yloxy)-4-chloro-phenoxy]-[1,8]naphthyridine]
33 |  |  | 130 | CN1CC(COc2cc(Br)ccc2OCc2cccc(Cl)c2)C1 [Example 234, 3-[5-Bromo-2-(3-chloro-benzyloxy)-phenoxymethyl]-1-methyl-azetidine]
34 |  | 119 |  | Clc1ccc(OCC2Cc3ccccc3O2)c(OC2CNC2)c1 (stereo not shown) [Example 169, 3-[5-Chloro-2-(2,3-dihydro-benzofuran-2-ylmethoxy)-phenoxy]-azetidine]
35 |  |  | 39 | COc1cccc(C(=O)c2ccc(Br)cc2OC2CNC2)c1 [Example 286, [2-(Azetidin-3-yloxy)-4-bromo-phenyl]-(3-methoxy-phenyl)-methanone]
36 |  |  | 20 | Fc1ccc(Oc2ccc(Br)cc2OC2CNC2)cc1 [Example 249, 3-[5-Bromo-2-(4-fluoro-phenoxy)-phenoxy]-azetidine]
37 |  |  | 196 | Brc1ccc(Oc2cccc3ccccc23)c(OC2CNC2)c1 [Example 255, 3-[5-Bromo-2-(naphthalen-1-yloxy)-phenoxy]-azetidine]
38 |  |  | 226 | O=C(c1ccc2c(c1)OCO2)c1ccc(Cl)cc1OC1CNC1 [Example 295, [2-(Azetidin-3-yloxy)-4-chloro-phenyl]-benzo[1,3]dioxol-5-yl-methanone]
39 |  |  | 150 | O=C(c1ccc(Cl)cc1)c1ccc(Cl)cc1OC1CNC1 [Example 297, [2-(Azetidin-3-yloxy)-4-chloro-phenyl]-(4-chloro-phenyl)-methanone]
40 |  |  | 50 | CN1CC(Oc2cc(Br)ccc2C(=O)c2cccc(Cl)c2)C1 [Example 283, [4-Bromo-2-(1-methyl-azetidin-3-yloxy)-phenyl]-(3-chloro-phenyl)-methanone]
41 |  | 1270 |  | Clc1ccc(OCC2CCCO2)c(OC2CNC2)c1 (stereo not shown) [Example 166, 3-[5-Chloro-2-(tetrahydro-furan-2-ylmethoxy)-phenoxy]-azetidine]
42 |  | 1460 |  | Fc1cc(Cl)cc(OC2CNC2)c1OCc1ccc(C(F)(F)F)o1 [Example 198, 3-[5-Chloro-3-fluoro-2-(5-trifluoromethyl-furan-2-ylmethoxy)-phenoxy]-azetidine]
43 |  |  | 3000 | Cc1ccccc1C(=O)c1ccc(Br)cc1OC1CNC1 [Example 285, [2-(Azetidin-3-yloxy)-4-bromo-phenyl]-o-tolyl-methanone]
44 |  |  | 120 | Clc1cccc(COc2ccc(Br)cc2COC2CNC2)c1 [Example 237, 3-[5-Bromo-2-(3-chloro-benzyloxy)-benzyloxy]-azetidine]
